According to US10913727B2, “Modulators of the integrated stress pathway” (Calico Life Sciences LLC, priority 2016, dated 2021):

Tested on: HEK293T cells carrying the ATF4 luciferase reporter
Assay: ATF4-Luc assay, in vitro model of Vanishing Cell White Matter Disease (VWMD)
Type: cell-based
Conditions: Homo sapiens, HEK-293T, 1 μg/mL tunicamycin, 7 hours, One Glo luminescence
How it was run: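 Reporter cells were stably generated by retroviral transduction and puromycin selection, then seeded at 30,000 cells/well. Next day, cells received 1 μg/mL tunicamycin with 200 nM test compound for 7 h, and luciferase luminescence was read with a one-step reagent. Values reported as EC50.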

`CCn1ccc(C(=O)NC23CC(NC(=O)COc4ccc(Cl)c(F)c4)(C2)C3)cc1=O` [Compound 405, N-{3-[2-(4-chloro-3-fluorophenoxy)acetamido]bicyclo[1.1.1]pentan-1-yl}-1-ethyl-2-oxo-1,2-dihydropyridine-4-carboxamide] and `CCN(CC)c1cccc(C(=O)NC23CC(NC(=O)COc4ccc(Cl)c(F)c4)(C2)C3)c1` [Compound 543, N-{3-[2-(4-chloro-3-fluorophenoxy)acetamido]bicyclo[1.1.1]pentan-1-yl}-3-(diethylamino)benzamide] cannot be ordered by EC50: over 2000 nM for the first, over 2000 nM for the second.

`O=C(COc1ccc(Cl)c(F)c1)NC12CC(NC(=O)c3ccncc3)(C1)C2` [Compound 186, N-{3-[2-(4-chloro-3-fluorophenoxy)acetamido]bicyclo[1.1.1]pentan-1-yl}pyridine-4-carboxamide] and `CN(C)c1ccc(C(=O)NC23CC(NC(=O)COc4ccc(Cl)c(F)c4)(C2)C3)cc1` [Compound 536, N-{3-[2-(4-chloro-3-fluorophenoxy)acetamido]bicyclo[1.1.1]pentan-1-yl}-4-(dimethylamino)benzamide] fall in the same range of EC50: 250 to 1000 nM for the first, 250 to 1000 nM for the second.

`Cc1nc(C(=O)NC23CCC(NC(=O)COc4ccc(Cl)c(F)c4)(CC2)[C@@H](O)C3)cs1` [Compound 572, N-{(3S)-4-[2-(4-chloro-3-fluorophenoxy)acetamido]-3-hydroxybicyclo[2.2.2]octan-1-yl}-2-methyl-1,3-thiazole-4-carboxamide] and `N#Cc1ccnc(C(=O)NC23CCC(NC(=O)COc4ccc(Cl)c(F)c4)(CC2)C(O)C3)c1` (stereo not drawn) [Compound 932, N-{4-[2-(4-chloro-3-fluorophenoxy)acetamido]-3-hydroxybicyclo[2.2.2]octan-1-yl}-4-cyanopyridine-2-carboxamide] fall in the same range of EC50: 50 to 250 nM for the first, 50 to 250 nM for the second.

First: Cc1ncc(C(=O)NC23CC(NC(=O)COc4ccc(Cl)c(F)c4)(C2)C3)cn1 [Compound 121, N-{3-[2-(4-chloro-3-fluorophenoxy)acetamido]bicyclo[1.1.1]pentan-1-yl}-2-methylpyrimidine-5-carboxamide]
Second: Cn1ccnc1C(=O)NC12CC(NC(=O)COc3ccc(Cl)c(F)c3)(C1)C2 [Compound 904, N-{3-[2-(4-chloro-3-fluorophenoxy)acetamido]bicyclo[1.1.1]pentan-1-yl}-1-methyl-1H-imidazole-2-carboxamide]
The EC50 of the first is lower: 1000 to 2000 nM for the first, over 2000 nM for the second.

`Cn1nc(C(F)F)cc1C(=O)NC12CCC(NC(=O)COc3ccc(Cl)c(F)c3)(CC1)C(O)C2` (stereo not drawn) [Compound 437, N-{4-[2-(4-chloro-3-fluorophenoxy)acetamido]-3-hydroxybicyclo[2.2.2]octan-1-yl}-3-(difluoromethyl)-1-methyl-1H-pyrazole-5-carboxamide] and `O=C(COc1ccc(Cl)c(F)c1)NC12CCC(NC(=O)c3coc(C(F)(F)F)c3)(CC1)CC2O` (stereo not drawn) [Compound 566, N-{4-[2-(4-chloro-3-fluorophenoxy)acetamido]-3-hydroxybicyclo[2.2.2]octan-1-yl}-5-(trifluoromethyl)furan-3-carboxamide] cannot be ordered by EC50: under 50 nM for the first, under 50 nM for the second.

First: O=C(COc1ccc(Cl)c(F)c1)NC12CC(NC(=O)c3ccc4c(c3)OC(F)(F)O4)(C1)C2 [Compound 234, N-{3-[2-(4-chloro-3-fluorophenoxy)acetamido]bicyclo[1.1.1]pentan-1-yl}-2,2-difluoro-2H-1,3-benzodioxole-5-carboxamide]
Second: O=C(COc1ccc(Cl)c(F)c1)NC12CC(NC(=O)c3cccc(F)c3F)(C1)C2 [Compound 509, N-{3-[2-(4-chloro-3-fluorophenoxy)acetamido]bicyclo[1.1.1]pentan-1-yl}-2,3-difluorobenzamide]
The EC50 of the first is lower: under 50 nM for the first, 250 to 1000 nM for the second. The first is the more potent here.

`CSc1ncccc1C(=O)NC12CC(NC(=O)COc3ccc(Cl)c(F)c3)(C1)C2` [Compound 828, N-{3-[2-(4-chloro-3-fluorophenoxy)acetamido]bicyclo[1.1.1]pentan-1-yl}-2-(methylsulfanyl)pyridine-3-carboxamide] and `CCOc1ncccc1C(=O)NC12CC(NC(=O)COc3ccc(Cl)c(F)c3)(C1)C2` [Compound 861, N-{3-[2-(4-chloro-3-fluorophenoxy)acetamido]bicyclo[1.1.1]pentan-1-yl}-2-ethoxypyridine-3-carboxamide] cannot be ordered by EC50: over 2000 nM for the first, over 2000 nM for the second.

`CC(=O)Nc1nc(C(=O)NC23CC(NC(=O)COc4ccc(Cl)c(F)c4)(C2)C3)cs1` [Compound 870, 2-acetamido-N-{3-[2-(4-chloro-3-fluorophenoxy)acetamido]bicyclo[1.1.1]pentan-1-yl}-1,3-thiazole-4-carboxamide] and `O=C(COc1ccc(Cl)c(F)c1)NC12CC(NC(=O)c3cccc(C(F)(F)F)n3)(C1)C2` [Compound 781, N-{3-[2-(4-chloro-3-fluorophenoxy)acetamido]bicyclo[1.1.1]pentan-1-yl}-6-(trifluoromethyl)pyridine-2-carboxamide] cannot be ordered by EC50: over 2000 nM for the first, over 2000 nM for the second.

First: O=C(COc1ccc(Cl)c(F)c1)NC12CCC(NC(=O)c3cccc(C(F)(F)F)n3)(CC1)CC2O (stereo not drawn) [Compound 941, N-{4-[2-(4-chloro-3-fluorophenoxy)acetamido]-3-hydroxybicyclo[2.2.2]octan-1-yl}-6-(trifluoromethyl)pyridine-2-carboxamide]
Second: O=C(COc1ccc(Cl)c(F)c1)NC12CCC(NC(=O)c3ccncn3)(CC1)C(O)C2 (stereo not drawn) [Compound 226, N-{4-[2-(4-chloro-3-fluorophenoxy)acetamido]-2-hydroxybicyclo[2.2.2]octan-1-yl}pyrimidine-4-carboxamide]
The EC50 of the first is lower: under 50 nM for the first, 250 to 1000 nM for the second. The first is the more potent here.

`CCc1ncc(C(=O)NC23CC(NC(=O)COc4ccc(Cl)c(Cl)c4)(C2)C3)o1` [Compound 674, N-{3-[2-(3,4-dichlorophenoxy)acetamido]bicyclo[1.1.1]pentan-1-yl}-2-ethyl-1,3-oxazole-5-carboxamide] and `O=C(COc1ccc(Cl)c(F)c1)NC12CC(NC(=O)c3cnc(-c4ccc(Cl)c(F)c4)o3)(C1)C2` [Compound 105, N-{3-[2-(4-chloro-3-fluorophenoxy)acetamido]bicyclo[1.1.1]pentan-1-yl}-2-(4-chloro-3-fluorophenyl)-1,3-oxazole-5-carboxamide] cannot be ordered by EC50: under 50 nM for the first, under 50 nM for the second.

Compared with `O=C(COc1ccc(Cl)c(F)c1)NC12CC(Nc3nnc(-c4ccccc4)o3)(C1)C2` [Compound 404, 2-(4-chloro-3-fluorophenoxy)-N-{3-[(5-phenyl-1,3,4-oxadiazol-2-yl)amino]bicyclo[1.1.1]pentan-1-yl}acetamide], `O=C(COc1ccc(Cl)c(F)c1)NC12CC(NC(=O)c3cc(-n4cncn4)ccn3)(C1)C2` [Compound 481, N-{3-[2-(4-chloro-3-fluorophenoxy)acetamido]bicyclo[1.1.1]pentan-1-yl}-4-(1H-1,2,4-triazol-1-yl)pyridine-2-carboxamide] is lower in EC50: over 2000 nM for the first, 1000 to 2000 nM for the second.

First: CN(CC1CCC1)c1cnc(C(=O)NC23CC(NC(=O)COc4ccc(Cl)c(F)c4)(C2)C3)cn1 [Compound 420, N-{3-[2-(4-chloro-3-fluorophenoxy)acetamido]bicyclo[1.1.1]pentan-1-yl}-5-[(cyclobutylmethyl)(methyl)amino]pyrazine-2-carboxamide]
Second: COc1ccc(C(=O)NC23CC(NC(=O)COc4ccc(Cl)c(F)c4)(C2)C3)c(F)c1 [Compound 518, N-{3-[2-(4-chloro-3-fluorophenoxy)acetamido]bicyclo[1.1.1]pentan-1-yl}-2-fluoro-4-methoxybenzamide]
The EC50 of the first is higher: over 2000 nM for the first, 250 to 1000 nM for the second. The second is the more potent here.
